molecular target: T1, recombinant full length LRRK2 over-expressed in SH-SY5Y cells (Homo sapiens, UniProt Q5S007); test: Recombinant cellular LRRK2 AlphaScreen assay (LRRK2 Ser935 phosphorylation); format: cell-based; conditions: SH-SY5Y cells with BacMam LRRK2, 60 minutes compound incubation, read-out: recombinant cellcular LRRK2 alphaScreen assay (pIC50) (converted)
T1 construct: A BacMam virus expressing full length recombinant LRRK2 was purchased from Invitrogen; host or cells: SH-SY5Y human neuroblastoma cells transduced with BacMam LRRK2 virus
Procedure: Recombinant Cellular LRRK2 AlphaScreen Assay
A BacMam virus expressing full length recombinant LRRK2 was purchased from Invitrogen and amplified by inoculation of SF-9 cells at MOI 0.3 for 4-5 days in Sf-900 III SFM medium supplemented with 3% fetal bovine serum. Infected cell cultures were then centrifuged at 2000 g for 20 minutes, viral supernatant titer determined by anti-gp64 plaque assay and stored at 4° C.
Affinity-purified anti-phospho LRRK2 Ser935 sheep polyclonal antibody (Dzamko et al., 2010, Biochem. J. 430: 405-413) was biotinylated by standard methods (PerkinElmer). Anti-LRRK2 rabbit polyclonal antibody was purchased from Novus Biologicals. AlphaScreen Protein A IgG Kit (including acceptor and donor beads) was purchased from Perkin Elmer.
SH-SY5Y cells were grown in DMEM/F12 medium with 10% dialysed fetal bovine serum and harvested by treatment with 0.5% trypsin-EDTA for 5 minutes at […] followed by centrifugation at 1000 rpm for 4 minutes. The cell pellet was resuspended in Opti-MEM reduced serum media (Invitrogen) at 200,000 cells/ml and mixed with the BacMam LRRK2 virus at MOI=50. 50 μl cell solutions were then dispensed to each well of a 384-well plate and incubated at 37° C., 5% CO2 for 24 hours.
Serial dilutions of test compounds were prepared in Opti-MEM reduced serum media (Invitrogen) and 5.6 ul transferred from compound plate to cell assay plate to achieve a top final assay concentration of 10 uM. DMSO was used in certain wells as controls. Cells were incubated at 37° C., 5% CO2 for 60 minutes. The medium was then removed and cells lysed by addition of 20 ul cell lysis buffer (Cell Signaling Technology) and incubation at 4° C. for 20 minutes. 10 ul of antibody/acceptor bead mix [(1/1000 biotinylated-pS935 LRRK2 antibody, 1/1000 total-LRRK2 antibody, 1/100 Acceptor beads in AlphaScreen detection buffer (25 mM Hepes (pH 7.4), 0.5% Triton X-100, 1 mg/ml Dextran 500 and 0.1% BSA)] was then added to each well and plates incubated for 2 hours at ambient temperature in the dark. 10 μl of donor beads solution (1/33.3 donor beads in AlphaScreen detection buffer) was then added to each well. Following incubation for a further 2 hours at ambient temperature in the dark, plates were read on an EnVision™ plate reader at emission 520-620 nm with excitation 680 nm. Dose response curve data was based on sigmoidal dose-response model.

T1 sequence (Q5S007 whole entry): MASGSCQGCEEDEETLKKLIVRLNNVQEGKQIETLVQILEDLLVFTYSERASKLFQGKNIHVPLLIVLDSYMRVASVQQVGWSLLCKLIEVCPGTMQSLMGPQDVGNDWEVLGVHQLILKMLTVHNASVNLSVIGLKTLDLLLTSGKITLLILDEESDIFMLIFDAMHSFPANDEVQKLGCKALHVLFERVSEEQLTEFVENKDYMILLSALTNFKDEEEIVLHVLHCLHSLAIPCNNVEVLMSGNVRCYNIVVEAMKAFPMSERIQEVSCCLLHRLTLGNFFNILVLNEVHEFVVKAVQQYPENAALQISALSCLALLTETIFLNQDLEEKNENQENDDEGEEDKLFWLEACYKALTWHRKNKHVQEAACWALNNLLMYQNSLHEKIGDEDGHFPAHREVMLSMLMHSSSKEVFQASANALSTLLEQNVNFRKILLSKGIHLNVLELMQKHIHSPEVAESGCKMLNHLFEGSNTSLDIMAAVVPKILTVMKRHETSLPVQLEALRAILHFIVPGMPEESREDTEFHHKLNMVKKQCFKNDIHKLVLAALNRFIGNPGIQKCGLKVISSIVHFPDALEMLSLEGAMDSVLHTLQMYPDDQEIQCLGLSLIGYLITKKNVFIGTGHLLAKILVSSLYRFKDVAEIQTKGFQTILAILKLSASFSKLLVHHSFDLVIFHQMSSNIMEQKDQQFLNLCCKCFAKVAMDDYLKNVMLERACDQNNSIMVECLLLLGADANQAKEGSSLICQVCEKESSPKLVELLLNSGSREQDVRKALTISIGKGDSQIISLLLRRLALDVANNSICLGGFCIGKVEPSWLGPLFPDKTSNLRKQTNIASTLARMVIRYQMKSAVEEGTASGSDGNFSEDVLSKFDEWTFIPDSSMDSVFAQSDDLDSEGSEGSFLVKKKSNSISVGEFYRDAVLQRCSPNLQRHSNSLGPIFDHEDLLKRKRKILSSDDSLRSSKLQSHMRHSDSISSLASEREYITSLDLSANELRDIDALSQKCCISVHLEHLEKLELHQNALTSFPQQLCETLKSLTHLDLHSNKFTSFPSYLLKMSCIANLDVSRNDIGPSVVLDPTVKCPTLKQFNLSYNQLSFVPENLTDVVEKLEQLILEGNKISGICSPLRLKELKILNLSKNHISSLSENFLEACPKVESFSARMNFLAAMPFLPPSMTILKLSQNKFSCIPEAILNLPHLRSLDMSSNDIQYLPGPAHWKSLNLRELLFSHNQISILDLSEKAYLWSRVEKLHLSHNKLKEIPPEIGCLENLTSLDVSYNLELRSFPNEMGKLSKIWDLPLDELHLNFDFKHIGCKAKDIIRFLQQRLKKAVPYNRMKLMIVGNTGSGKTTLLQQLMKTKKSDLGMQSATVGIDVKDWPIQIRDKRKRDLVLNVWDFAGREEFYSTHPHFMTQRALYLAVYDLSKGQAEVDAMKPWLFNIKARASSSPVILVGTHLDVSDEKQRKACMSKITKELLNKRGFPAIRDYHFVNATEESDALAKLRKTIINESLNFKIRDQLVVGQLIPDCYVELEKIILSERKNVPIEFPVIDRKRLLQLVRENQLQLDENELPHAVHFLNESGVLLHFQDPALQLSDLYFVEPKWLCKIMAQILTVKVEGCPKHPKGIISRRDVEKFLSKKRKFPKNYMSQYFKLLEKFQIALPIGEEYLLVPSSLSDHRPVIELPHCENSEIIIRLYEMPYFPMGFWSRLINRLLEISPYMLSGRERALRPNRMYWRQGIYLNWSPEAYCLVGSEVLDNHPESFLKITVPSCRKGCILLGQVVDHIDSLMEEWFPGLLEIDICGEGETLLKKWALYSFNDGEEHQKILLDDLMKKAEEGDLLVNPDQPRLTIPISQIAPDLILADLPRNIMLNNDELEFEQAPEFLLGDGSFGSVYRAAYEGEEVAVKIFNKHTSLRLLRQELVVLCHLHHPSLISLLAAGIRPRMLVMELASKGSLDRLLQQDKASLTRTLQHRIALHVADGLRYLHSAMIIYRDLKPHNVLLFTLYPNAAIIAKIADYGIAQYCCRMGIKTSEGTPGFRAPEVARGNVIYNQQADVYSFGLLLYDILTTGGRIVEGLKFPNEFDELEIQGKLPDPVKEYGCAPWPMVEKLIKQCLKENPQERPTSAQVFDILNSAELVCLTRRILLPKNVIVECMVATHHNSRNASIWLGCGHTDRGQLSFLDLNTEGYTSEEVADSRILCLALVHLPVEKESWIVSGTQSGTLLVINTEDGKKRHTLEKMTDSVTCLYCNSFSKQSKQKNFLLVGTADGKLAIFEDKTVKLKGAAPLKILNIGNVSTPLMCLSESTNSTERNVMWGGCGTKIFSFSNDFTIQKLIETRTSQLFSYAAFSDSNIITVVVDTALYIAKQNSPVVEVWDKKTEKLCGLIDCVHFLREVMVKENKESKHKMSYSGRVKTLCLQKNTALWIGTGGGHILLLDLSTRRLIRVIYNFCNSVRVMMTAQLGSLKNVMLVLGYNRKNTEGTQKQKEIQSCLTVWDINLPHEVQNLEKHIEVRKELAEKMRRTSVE

`CCOc1nc(Nc2ccc(C(=O)N3CCOCC3)cc2OC)nc2[nH]ccc12` [Example E1, (4-((4-ethoxy-7H-pyrrolo-[2,3-d]-pyrimidin-2-yl)amino)-3-methoxyphenyl)(morpholino)methanone] and `CCOc1cc(C(=O)N2CCOCC2)ccc1Nc1nc(OCC)c2cc[nH]c2n1` [Example E20, (3-ethoxy-4-((4-ethoxy-7H-pyrrolo-[2,3-d]pyrimidin-2-yl)amino)phenyl)(morpholino)methanone] are within 1.5-fold of each other in IC50: 158 nM for the first, 200 nM for the second.

Going from `CCOc1nc(Nc2cc(F)c(C(=O)N3CCOCC3)cc2OC)nc2[nH]ccc12` [Example E2, (4-((4-ethoxy-7H-pyrrolo-[2,3-d]-pyrimidin-2-yl)amino)-2-fluoro-5-methoxyphenyl)(morpholino)methanone] to `CCOc1nc(Nc2ccc(C(=O)N3CCOCC3)cc2)nc2[nH]ccc12` [Example E9, (4-((4-ethoxy-7H-pyrrolo-[2,3-d]pyrimidin-2-yl)amino)phenyl)(morpholino)methanone], the IC50 falls from 200 nM to ≤ 100 nM.

Going from `CCOc1nc(Nc2ccc(C(=O)N3CCN(C)CC3)cc2OC)nc2[nH]ccc12` [Example E3, (4-((4-ethoxy-7H-pyrrolo-[2,3-d]-pyrimidin-2-yl)amino)-3-methoxyphenyl)(4-methylpiperazin-1-yl)-methanone] to `CCOc1nc(Nc2ccc(C(=O)N3CCN(C)CC3)cc2OC(C)C)nc2[nH]ccc12` [Example E24, (4-((4-ethoxy-7H-pyrrolo-[2,3-d]pyrimidin-2-yl)amino)-3-isopropoxyphenyl)(4-methylpiperazin-1-yl)methanone], the IC50 rises from 158 nM to 398 nM (2.5-fold).

`CCOc1nc(Nc2ccc(C(=O)N3CCC(N4CCN(C)CC4)CC3)cc2OC)nc2[nH]ccc12` [Example E4, (4-((4-ethoxy-7H-pyrrolo-[2,3-d]pyrimidin-2-yl)amino)-3-methoxyphenyl)(4-(4-methylpiperazin-1-yl)-piperidin-1-yl)-methanone] and `CCOc1nc(Nc2ccc(C(=O)N3CCC4(CC3)CN(C)C4)cc2OC)nc2[nH]ccc12` [Example E13, (4-((4-ethoxy-7H-pyrrolo-[2,3-d]-pyrimidin-2-yl)amino)-3-methoxyphenyl)(2-methyl-2,7-diazaspiro-[3.5]-nonan-7-yl)methanone] cannot be ordered by IC50: ≤ 100 nM for the first, ≤ 100 nM for the second.

Going from `CCOc1nc(Nc2ccc(C(=O)N3CCC4(CC3)CC4)cc2OC)nc2[nH]ccc12` [Example E16, (4-((4-ethoxy-7H-pyrrolo-[2,3-d]-pyrimidin-2-yl)amino)-3-methoxyphenyl)(6-azaspiro-[2.5]octan-6-yl)methanone] to `CCOc1nc(Nc2ccc(C(=O)N3CCN(C)C[C@H]3C)cc2OC)nc2[nH]ccc12` [Example E40, (R)-(2,4-dimethylpiperazin-1-yl)(4-((4-ethoxy-7H-pyrrolo-[2,3-d]-pyrimidin-2-yl)-amino)-3-methoxyphenyl)methanone], the IC50 falls from 398 nM to 50.1 nM (7.9-fold).

`CCOc1nc(Nc2ccc(C(=O)N3CCOC[C@@H]3C)cc2OC)nc2[nH]ccc12` [Example E27, (S)-(4-((4-ethoxy-7H-pyrrolo-[2,3-d]pyrimidin-2-yl)amino)-3-methoxyphenyl)(3-methylmorpholino)methanone] and `CCOc1nc(Nc2ccc(C(=O)N3CCN(C)CC3)cc2OC)nc2[nH]cc(C)c12` [Example E31, (4-((4-ethoxy-5-methyl-7H-pyrrolo-[2,3-d]pyrimidin-2-yl)amino)-3-methoxyphenyl)(4-methylpiperazin-1-yl)methanone] cannot be ordered by IC50: ≤ 100 nM for the first, ≤ 100 nM for the second.

Source: patent US9815841B2, “Compounds” (GLAXOSMITHKLINE INTELLECTUAL PROPERTY DEVELOPMENT LIMITED, priority 2014, dated 2017)
